Where two headings read alike, the source gives them in different places.
What was measured:
OATP1B3 = molecular target: T1, OATP1B3 (Homo sapiens, UniProt Q9NPD5); assay: Uptake of CLF into CHO cells expressing OATP1B3; assay type: cell-based; design: Vmax of OATP1B3 mediated CLF transport: unit not given here
T1 construct: expressed in transfected cells; host or cells: CHO cells (stably transfected; Treiber et al. 2007)
T1 sequence (Q9NPD5 1-702): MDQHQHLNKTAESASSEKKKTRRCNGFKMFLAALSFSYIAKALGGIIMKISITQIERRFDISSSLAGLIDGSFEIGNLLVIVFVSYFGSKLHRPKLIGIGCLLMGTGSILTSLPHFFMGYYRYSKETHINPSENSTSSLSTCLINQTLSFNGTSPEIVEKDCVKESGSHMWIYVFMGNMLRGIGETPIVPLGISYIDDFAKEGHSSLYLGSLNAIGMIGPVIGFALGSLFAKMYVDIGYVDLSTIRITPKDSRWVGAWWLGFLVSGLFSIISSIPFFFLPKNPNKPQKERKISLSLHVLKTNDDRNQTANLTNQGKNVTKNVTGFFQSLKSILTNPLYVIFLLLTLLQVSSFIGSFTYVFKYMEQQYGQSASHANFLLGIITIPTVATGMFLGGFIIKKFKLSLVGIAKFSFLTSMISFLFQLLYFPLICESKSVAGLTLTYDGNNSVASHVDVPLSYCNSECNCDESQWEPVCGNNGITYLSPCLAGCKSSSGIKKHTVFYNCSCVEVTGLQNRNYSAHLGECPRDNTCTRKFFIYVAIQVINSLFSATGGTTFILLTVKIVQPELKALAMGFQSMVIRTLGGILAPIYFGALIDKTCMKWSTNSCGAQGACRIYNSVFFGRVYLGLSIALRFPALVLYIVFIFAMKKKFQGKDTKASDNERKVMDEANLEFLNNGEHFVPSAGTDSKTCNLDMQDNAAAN
Method: cDNA for human NTCP [Hagenbuch et al., J Clin Invest 1994 March; 93(3): 1326-1331] was cut with EcoRV and HindI and the coding region ligated into pcDNA5/FRT (Invitrogen, Life-Technologies, Carlsbad, Calif.). CHO FlpIn cells (Invitrogen, Life-Technologies) were transfected with the resulting construct using Lipofectamine® 2000 (Invitrogen, Life-Technologies). Stably transfected cells were selected with 550 μg Hygromycin-B in HAM-F12 medium (Gibco, Invitrogen, Life-Technologies). Transfected cells were cloned with the limiting dilution method. […] To further characterize the cloned cells, immunofluorescence localization of NTCP using a polyclonal antibody against NTCP [Kullak-Ublick G et al., Gastroenterology 1997 October; 113(4):1295-1305] was performed as described by Huber R D et al. [Am J Physiol Cell Physiol 2007 February; 292(2):[…]-[…]]. CHO cells expressing OATP1B1, OATP1B3 and OATP2B1 were described previously [Treiber et al., DMD 35:1400-1407, 2007]. For all transport experiments, cells grown on 3 cm culture dishes were cultured for 24 hours in media supplemented with 5 mmol/L sodium-butyrate to increase expression levels of transfected transporters [Palermo D P et al., J Biotechnol 1991 June; 19(1):35-47]. • Transport experiments with uptake of radioactively labeled substrates: These experiments were performed as described by Huber R D et al. […] Uptake was performed in the same buffers as for the radioactive substrates above. For visualization of CLF uptake, cells were immediately inspected with a Leica-DM-IRBE-inverted-microcope (Leica-Microsystems, Wetzlar, Germany) equipped with a Hamamatsu-ORKA-ER-camera (Hamamatsu-Photonoics, Japan). To determine uptake of CLF, cells were solubilized by the addition of 2 ml 1% (w/v) Triton-X-100. After complete solubilization, 1.5 ml was used to measure fluorescence in a Perkin-Elmer LS-5 luminescence-spectrometer set at λexe 486 nm (slit 10 nm) and λem 520 nm (slit 5 nm). Protein was determined with the bicinchoninic acid method using a kit from Interchim (Montfuçon, France). […]

[1] = Biliary secretion study of CLF in wild type, Abcc2-/- and Abcc3-/- mice; assay type: in vivo; conditions: FVB, mouse, blood, intravenous, 100 μL of 1 mmol/L CLF, 120 minutes after administration, read-out: blood levels of CLF
Method: (§1) Mice received 100 μL of 1 mmol/L CLF by injection in the tail vein. Data represent means±SD. Plasma levels are expressed in nmol/L and levels in urine, liver and bile as percentage of administered dose. Significance was tested using two-sided Student's t-test: *P<0.05 for Abcc2^-/- vs wild type mice. Data represent means±SD. Abcc2^-/- mice (against a Friend virus B-type (FVB) background) were bred at the National Cancer Institute (Amsterdam, The Netherlands). Production and characterization of the Abcc2^-/- mice was as described by […] et al. [J Pharmacol Exp Ther 2006 July; 318(1):319-327]. Wild type and Abcc3^-/- mice (against an FVB background) were bred at the animal institute of the Academic Medical Center. Production and characterization of the Abcc3^-/- mice was as described by Zelcer et al. [J Hepatol 2006 April; 44(4):768-775]. For biliary secretion studies, the gall bladder was cannulated with PE10 polyethylene tubing and 100 μL (1 mmol/L) CLF was injected in the tail vein. Bile was collected in 10 minutes fractions; liver and blood were harvested at the end of the experiment. Homogenised livers were deproteinised by adding 2 volumes of MeOH, and bile and blood samples were diluted with 0.1% Triton-X-100. The amount CLF was quantitated by measurement of fluorescence as described above.

Abcc2 and Abcc3 = assay: as above; assay type: in vivo; conditions: for cumulative biliary excretion of CLF / hepatic retention of CLF: 120 minutes after administration
Method: as §1

CC(CCC(=O)NC(CCCCNC(=S)Nc1ccc(-c2c3ccc(=O)cc-3oc3cc(O)ccc23)c(C(=O)O)c1)C(=O)O)C1CCC2C3C(O)CC4CC(O)CCC4(C)C3CC(O)C12C (stereo not shown) [CLF, cholyl lysyl fluorescein]
uptake of CLF into OATP1B3 expressing cells (OATP1B3; 1 μmol/L CLF, 1 or 5 minutes): clear uptake
Vmax of OATP1B3 mediated CLF transport (OATP1B3; 45 seconds, mean of three independent determinations): 213±42
Km at 45 seconds (OATP1B3; human, CHO cells expressing OATP1B3, 45 seconds, mean of three independent determinations, read-out: Km of OATP1B3 mediated CLF transport): 4.6 ± 2.7 µM
concentration at 120 min ([1]; Abcc2-/- mice): 1310 ± 749 nM
concentration at 120 min ([1]; wt mice): 83 ± 21 nM
biliary output of CLF in Abcc3-/- mice in comparison with wild type mice (Abcc2 and Abcc3; 100 μL 1 mmol/L CLF in the tail vein): not affected
CLF dose excreted into bile within 20 minutes (Abcc2 and Abcc3; Abcc2-/- mice, 100 μL 1 mmol/L CLF in the tail vein): less than 2%
cumulative biliary excretion of CLF (Abcc2 and Abcc3; Abcc2-/- mice): 32 % of the administered dose
hepatic retention of CLF (Abcc2 and Abcc3; Abcc2-/- mice): 64 % of the administered dose
plasma and liver CLF contents in Abcc3-/- mice in comparison with wild type mice (Abcc2 and Abcc3; after 2 hours): no differences
CLF dose excreted into bile within 20 minutes (Abcc2 and Abcc3; wild type mice, 100 μL 1 mmol/L CLF in the tail vein): ~70%
cumulative biliary excretion of CLF (Abcc2 and Abcc3; wild type mice): 85 % of the administered dose
hepatic retention of CLF (Abcc2 and Abcc3; wt mice): 1 % of the administered dose

Reference: US8318504B2, “MRP2 efflux pathway prognostic method” (priority 2009, dated 2012)
